Results on one compound are retold here after article PMC5869712 (Scientific Reports, 2018).

Bounds are passed on as bounds.

One data set has as its target T1, IR (Homo sapiens, UniProt P06213).
T1 construct: purchased Eurofins KinaseProfiler (Eurofins Pharma Discovery Services UK, Dundee); JAK3 also ChemPartner
Briefly: Eurofins Kinase Profiler panel. The data set is classed as biochemical. The following applies: read-out: % inhibition (1μM), DMSO control=100%, lower=stronger.

A further data set addresses T2, Lck (Homo sapiens, UniProt P06239).
T2 construct: purchased Eurofins KinaseProfiler (Eurofins Pharma Discovery Services UK, Dundee); JAK3 also ChemPartner
As to the kind of experiment: Eurofins Kinase Profiler panel. Format: biochemical. The following applies: read-out: % inhibition (1μM), DMSO control=100%, lower=stronger.

A further data set has as its target T3, MST1 (Homo sapiens, UniProt Q13043).
T3 construct: purchased Eurofins Pharma Discovery Services UK Limited (Kinase Profiler screening platform)
As to the kind of experiment: Eurofins Kinase Profiler panel. Format: biochemical. The following applies: read-out: % inhibition (1μM), DMSO control=100%, lower=stronger.

In the next data set the target is T4, Flt3 (Homo sapiens, UniProt P36888).
T4 construct: purchased Eurofins Pharma Discovery Services UK Limited (Kinase Profiler screening platform)
As to the kind of experiment: Eurofins Kinase Profiler panel. Format: biochemical. The following applies: read-out: % inhibition (1μM), DMSO control=100%, lower=stronger.

In data set [1] the test system is IL-2-induced STAT5 phosphorylation (JAK1/JAK3). Briefly: IL-2-induced pSTAT5 in total lymphocytes in hPBMCs, flow cytometry. The data set is classed as cell-based. The following applies: Homo sapiens, Lymphocyte, hPBMC total lymphocytes, trigger IL-2, readout pSTAT5.
A further data set addresses JAK3 (Cys909) (Homo sapiens, UniProt P52333). As to the kind of experiment: LC-MS/MS mapping of covalent modification. The following applies: LC-MS/MS after incubation of JAK3 with compound. The data set is classed as binding. On the procedure:
[…]. Then, trypsin was added at a 1:50 trypsin-to-protein mass ratio for the first digestion overnight and a 1:100 trypsin-to-protein mass ratio for a second 4-h digestion. The digested peptides were dried with a SpeedVac (Thermo) for LC-MS/MS analysis.
Peptides were dissolved in solvent A (0.1% FA in 2% ACN) and directly loaded onto a reversed-phase pre-column (Acclaim PepMap 100, Thermo Scientific). […] The resulting peptides were analysed by Q Exactive^TM Plus hybrid Quadrupole-Orbitrap Mass Spectrometer (ThermoFisher Scientific).
The peptides were subjected to NSI source followed by tandem mass spectrometry (MS/MS) in Q Exactive^TM Plus (Thermo) coupled online to the UPLC. Intact peptides were detected in the Orbitrap at a resolution of 70,000. Peptides were selected for MS/MS using 30% NCE; ion fragments were detected in the Orbitrap at a resolution of 17,500. A data-dependent procedure that alternated between one MS scan followed by […] was applied for the top 20 precursor ions above a threshold ion count of 5000 in the MS survey scan with 5.0 s dynamic exclusion. The electrospray voltage applied was 2.0 kV. Automatic gain control (AGC) was used to prevent overfilling of the ion trap; 5 E4 ions were accumulated for generation of MS/MS spectra. For MS scans, the m/z scan range was 350 to 1800.

The test system of data set [2] is DBA/1 mice with collagen-induced arthritis. As to the kind of experiment: Collagen-induced arthritis mouse model: clinical score, histology, safety. The data set is classed as in vivo. The following applies: CIA mice; for group mean histological severity score: model group 3.8, grades 0-4. On the procedure:
The animal protocol was approved by the Animal Care and Use Committee of Sichuan University in China (IACUC number: 20100318). DBA/1 J mice (male, 6 weeks old) were obtained from Jackson Laboratory (Bar Harbor, ME). One day before the start of the experiment, CII solution (2 mg/ml) was prepared with 0.05 M acetic acid and stored at 4 °C. Just before the immunization, equal volumes of IFA and CII were mixed by a homogenizer in a precooled glass bottle in an ice water bath. Arthritis was induced in 8-week old male DBA/1 mice by immunizations with a 1:1 emulsion of bovine type II collagen (Chondrex) and Freund’s complete adjuvant (Sigma-Aldrich) on day 0 and with a 1:1 emulsion of bovine type II collagen in Freund’s incomplete adjuvant (Sigma-Aldrich) on day 21. […] On the day treatment was initiated, the mice were randomly assigned to controls (no collagen injection plus vehicle; […]. Mice were scored daily for signs of arthritis for 33 days. CIA development was inspected three times per week, and the inflammation of the four paws was graded from 0 to 4 (grade 0, paws with no swelling or focal redness; grade 1, paws with swelling of finger joints; grade 2, paws with a mild swelling of the ankle or wrist joints; grade 3, paws with severe inflammation of the entire paw; and grade 4, paws with deformity or ankylosis). Each paw was graded, and the four scores were totalled so that the possible maximum score per mouse was 16.
DBA1/J mice were sacrificed on day 33 after treatment and ankle joints were removed and fixed with 4% paraformaldehyde for more than 48 h. The joints were decalcified in EDTA buffer for 21 days and then embedded in paraffin blocks. Joint sections were stained with H&E or safranin O-fast green. Histological changes were examined under microscope using methods modified from McKew et al.[43] as follows: grade 0 = no abnormal findings; grade 1 = synoviocyte hypertrophy, slight synovial membrane fibrosis, slight-to-mild inflammatory cell infiltrates into the synovial membrane/articular capsule and/or joint space; grade 2 = grade 1 plus mild-to-moderate inflammatory cell infiltrates, pannus formation (if present) minimal with superficial cartilage erosion; grade 3 = grade 2 plus marked inflammatory cell infiltrates and fibrosis, mild-to-severe erosion of the cartilage extending into the subchondral bone; and grade 4 = loss of joint integrity through erosion or destruction with bone remodelling, massive inflammatory cell infiltrates, fibrosis, and ankylosis.

Data set [3] relates to Th1, Th17 and Treg cells of CIA mice. Briefly: Flow cytometry analysis of Th1, Th17 and Treg in CIA mice. The following applies: 100 mg/kg. Format: in vivo, mouse. On the procedure: On day 32 after the indicated treatments, mice were sacrificed to obtain cells from the spleen. Then, the cells were incubated with the corresponding antibodies to detect Th1, Th17 cells and Treg cells. CD4^+ IFN-γ^+ represents Th1 cells, CD4^+ IL-17^+ represents Th17 cells in […]. CD4^+ Foxp3^+ represents Treg cells. The analyses of cells were performed as described above.

For data set [4], the system named is EPO-induced JAK/STAT5 phosphorylation in HEL cells (JAK2). As to the kind of experiment: STAT5 phosphorylation induced by EPO in HEL cells, Western blot.

JAK3 (Cys909), sequence (P52333 whole entry): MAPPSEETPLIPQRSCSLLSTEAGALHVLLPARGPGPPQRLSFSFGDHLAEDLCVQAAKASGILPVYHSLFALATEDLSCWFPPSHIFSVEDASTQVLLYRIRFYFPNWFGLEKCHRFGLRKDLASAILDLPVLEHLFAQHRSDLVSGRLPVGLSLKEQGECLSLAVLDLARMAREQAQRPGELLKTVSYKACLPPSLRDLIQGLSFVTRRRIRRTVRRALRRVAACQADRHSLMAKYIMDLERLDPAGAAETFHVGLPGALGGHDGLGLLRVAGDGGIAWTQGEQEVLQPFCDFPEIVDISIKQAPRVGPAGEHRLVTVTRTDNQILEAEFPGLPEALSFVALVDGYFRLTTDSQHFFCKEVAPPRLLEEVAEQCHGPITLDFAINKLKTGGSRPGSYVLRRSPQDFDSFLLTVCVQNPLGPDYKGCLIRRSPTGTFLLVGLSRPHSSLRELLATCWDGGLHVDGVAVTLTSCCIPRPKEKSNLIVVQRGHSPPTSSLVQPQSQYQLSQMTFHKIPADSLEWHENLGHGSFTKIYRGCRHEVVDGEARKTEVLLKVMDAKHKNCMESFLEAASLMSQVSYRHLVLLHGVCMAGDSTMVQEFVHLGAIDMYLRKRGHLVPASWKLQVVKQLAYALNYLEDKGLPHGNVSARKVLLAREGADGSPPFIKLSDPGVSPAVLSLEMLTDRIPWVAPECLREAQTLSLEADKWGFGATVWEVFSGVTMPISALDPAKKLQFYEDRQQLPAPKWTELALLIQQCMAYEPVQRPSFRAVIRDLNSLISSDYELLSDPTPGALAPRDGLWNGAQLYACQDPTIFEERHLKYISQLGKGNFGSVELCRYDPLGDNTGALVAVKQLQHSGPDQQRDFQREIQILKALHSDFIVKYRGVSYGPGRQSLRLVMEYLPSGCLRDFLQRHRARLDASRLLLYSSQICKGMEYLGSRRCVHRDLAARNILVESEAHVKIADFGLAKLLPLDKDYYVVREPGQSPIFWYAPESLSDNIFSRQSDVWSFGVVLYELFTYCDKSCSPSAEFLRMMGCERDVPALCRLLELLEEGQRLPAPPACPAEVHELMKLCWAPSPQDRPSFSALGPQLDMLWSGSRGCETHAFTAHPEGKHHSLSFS
T4 sequence (P36888 27-993): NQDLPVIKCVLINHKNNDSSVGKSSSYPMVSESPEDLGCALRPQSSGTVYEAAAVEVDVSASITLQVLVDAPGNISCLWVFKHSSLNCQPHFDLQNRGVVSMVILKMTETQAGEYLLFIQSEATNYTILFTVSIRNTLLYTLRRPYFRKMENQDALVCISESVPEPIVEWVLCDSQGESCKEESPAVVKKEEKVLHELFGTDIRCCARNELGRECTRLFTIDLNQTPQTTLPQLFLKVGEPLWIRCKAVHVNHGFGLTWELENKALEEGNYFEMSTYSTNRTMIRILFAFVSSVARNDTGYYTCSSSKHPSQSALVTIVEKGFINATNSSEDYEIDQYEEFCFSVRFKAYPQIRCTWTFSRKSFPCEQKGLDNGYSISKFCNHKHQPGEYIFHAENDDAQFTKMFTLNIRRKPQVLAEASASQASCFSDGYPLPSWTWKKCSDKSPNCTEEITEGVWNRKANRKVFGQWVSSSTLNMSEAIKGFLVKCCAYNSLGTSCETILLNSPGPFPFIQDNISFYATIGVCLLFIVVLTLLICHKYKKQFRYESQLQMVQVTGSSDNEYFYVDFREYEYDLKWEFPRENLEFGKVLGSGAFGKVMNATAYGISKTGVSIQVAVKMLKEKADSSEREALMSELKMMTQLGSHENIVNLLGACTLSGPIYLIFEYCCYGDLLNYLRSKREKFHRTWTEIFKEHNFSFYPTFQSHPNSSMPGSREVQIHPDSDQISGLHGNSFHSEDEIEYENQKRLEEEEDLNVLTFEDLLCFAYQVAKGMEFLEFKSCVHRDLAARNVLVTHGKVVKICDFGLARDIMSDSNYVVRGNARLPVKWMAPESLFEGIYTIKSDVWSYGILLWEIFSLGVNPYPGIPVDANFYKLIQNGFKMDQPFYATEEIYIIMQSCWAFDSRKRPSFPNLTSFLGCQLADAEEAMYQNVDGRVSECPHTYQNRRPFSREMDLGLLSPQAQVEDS
T1 sequence (P06213 28-1382): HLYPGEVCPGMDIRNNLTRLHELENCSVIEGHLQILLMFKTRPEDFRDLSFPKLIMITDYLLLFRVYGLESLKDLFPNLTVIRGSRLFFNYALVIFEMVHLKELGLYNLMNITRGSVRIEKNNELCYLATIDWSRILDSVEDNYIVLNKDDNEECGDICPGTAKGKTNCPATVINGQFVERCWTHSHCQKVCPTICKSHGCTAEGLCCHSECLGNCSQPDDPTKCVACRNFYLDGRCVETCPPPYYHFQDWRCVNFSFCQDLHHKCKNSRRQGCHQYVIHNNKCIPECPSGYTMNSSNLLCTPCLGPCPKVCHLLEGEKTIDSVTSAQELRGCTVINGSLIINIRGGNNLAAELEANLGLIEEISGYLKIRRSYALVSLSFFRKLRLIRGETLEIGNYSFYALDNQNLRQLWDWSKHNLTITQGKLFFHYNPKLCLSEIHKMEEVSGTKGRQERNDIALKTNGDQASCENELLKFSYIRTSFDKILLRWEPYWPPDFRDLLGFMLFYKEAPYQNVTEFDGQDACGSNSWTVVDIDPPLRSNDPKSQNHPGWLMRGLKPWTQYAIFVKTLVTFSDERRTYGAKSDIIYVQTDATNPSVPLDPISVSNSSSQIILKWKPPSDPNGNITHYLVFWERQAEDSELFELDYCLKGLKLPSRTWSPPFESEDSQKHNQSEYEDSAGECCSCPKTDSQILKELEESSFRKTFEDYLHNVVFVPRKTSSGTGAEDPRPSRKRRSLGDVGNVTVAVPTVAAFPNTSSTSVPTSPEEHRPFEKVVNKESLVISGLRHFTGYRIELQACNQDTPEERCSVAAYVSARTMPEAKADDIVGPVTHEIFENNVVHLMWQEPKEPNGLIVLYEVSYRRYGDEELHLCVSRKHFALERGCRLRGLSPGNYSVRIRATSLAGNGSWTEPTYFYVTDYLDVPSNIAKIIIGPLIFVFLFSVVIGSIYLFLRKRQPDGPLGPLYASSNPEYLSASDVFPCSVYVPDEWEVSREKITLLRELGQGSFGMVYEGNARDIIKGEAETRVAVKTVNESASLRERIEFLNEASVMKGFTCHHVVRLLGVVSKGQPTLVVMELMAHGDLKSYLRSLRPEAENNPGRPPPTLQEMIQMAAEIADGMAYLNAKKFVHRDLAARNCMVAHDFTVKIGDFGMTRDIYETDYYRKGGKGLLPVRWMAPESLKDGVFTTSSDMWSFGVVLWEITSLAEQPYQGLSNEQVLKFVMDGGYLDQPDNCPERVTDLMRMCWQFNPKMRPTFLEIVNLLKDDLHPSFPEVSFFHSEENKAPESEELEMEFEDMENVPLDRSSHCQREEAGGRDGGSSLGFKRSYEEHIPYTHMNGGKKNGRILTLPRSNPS
T2 sequence (P06239 whole entry): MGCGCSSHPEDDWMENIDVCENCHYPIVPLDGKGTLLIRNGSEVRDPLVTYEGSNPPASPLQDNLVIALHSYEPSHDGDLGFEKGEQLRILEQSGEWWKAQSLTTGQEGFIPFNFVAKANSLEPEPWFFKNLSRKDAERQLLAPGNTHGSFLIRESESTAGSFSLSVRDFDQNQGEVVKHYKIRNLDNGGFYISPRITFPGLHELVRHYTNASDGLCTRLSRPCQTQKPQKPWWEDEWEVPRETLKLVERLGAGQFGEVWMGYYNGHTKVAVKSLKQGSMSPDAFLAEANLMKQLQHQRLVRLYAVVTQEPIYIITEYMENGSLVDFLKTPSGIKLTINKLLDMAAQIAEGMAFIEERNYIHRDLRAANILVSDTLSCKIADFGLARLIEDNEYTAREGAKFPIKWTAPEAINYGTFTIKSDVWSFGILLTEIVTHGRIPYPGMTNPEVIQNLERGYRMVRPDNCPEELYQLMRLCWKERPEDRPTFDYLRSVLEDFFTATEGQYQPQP
T3 sequence (Q13043 whole entry): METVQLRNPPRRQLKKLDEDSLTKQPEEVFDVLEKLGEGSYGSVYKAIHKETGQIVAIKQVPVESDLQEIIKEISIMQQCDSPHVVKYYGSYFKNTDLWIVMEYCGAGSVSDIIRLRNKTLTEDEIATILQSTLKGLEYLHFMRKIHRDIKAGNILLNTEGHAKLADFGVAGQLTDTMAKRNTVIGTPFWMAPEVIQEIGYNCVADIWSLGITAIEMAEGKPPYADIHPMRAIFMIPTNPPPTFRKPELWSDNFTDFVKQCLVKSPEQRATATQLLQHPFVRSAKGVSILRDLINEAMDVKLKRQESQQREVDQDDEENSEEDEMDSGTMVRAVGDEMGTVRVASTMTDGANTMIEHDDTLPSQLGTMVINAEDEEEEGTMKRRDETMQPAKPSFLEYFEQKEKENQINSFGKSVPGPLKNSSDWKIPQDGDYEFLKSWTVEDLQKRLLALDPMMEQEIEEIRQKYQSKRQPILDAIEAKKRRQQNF

Turning to `C=CC(=O)N[C@@H]1CCCN(c2ncnc3[nH]ccc23)C1` [RB1], the activity at 1 µM was 114% at IR, 80% on Lck, 83% at MST1 and 75% on Flt3. Further, the IC50 in data set [1] was 105 nM; in data set [4] (Homo sapiens), above 50000 nM. On JAK3 (Cys909), the “covalent modification of JAK3 (Cys909-containing peptide)” value is “covalently modify JAK3 in an apparently irreversible manner”. Further, the “H&E analysis of the major organs” value in [2] was “no significant side effects”. Further, the “body weight during treatment” value in data set [2] is reported as “no fluctuations”. The “group mean histological severity score” value in data set [2] (10 mg/kg) amounted to 2.5; in data set [2] (30 mg/kg), 1.7; in [2] (100 mg/kg) it was 0.9. For the same compound, the “arthritis (clinical) scores” value in [2] (p < 0.05 at 10 mg/kg, p < 0.001 at 30 and 60 mg/kg (so in the source)) is “lower arthritis scores than untreated CIA mice”. Also, the “percentage of Treg cells” value in data set [3] (model 0.55%) came out at 1.13%. In addition, in [3] (model 1.12%, normal […]), the Th1 cells came out at 0.49%. Moreover, in data set [3] (model 2.13%), the “percentage of Th17 cells” value is 0.80%. Also, the “Selectivity JAK2/JAK3” value in data set [4] (EPO, pSTAT5) is recorded as above 1000.
